Measured values taken from ChEMBL document CHEMBL5316368, “Di- and Triterpenoids from the Rhizomes of Isodon amethystoides and Their Anti-inflammatory Activities” (J Nat Prod, 2023).
Active and inactive are the calls of the source. The rule behind the calls is not given here.

Key:
RAW264.7 [1] = assay: Antiinflammatory activity against LPS-stimulated mouse RAW264.7 cells assessed as inhibition of NO production preincubated with compound for 2 hrs followed by LPS stimulation and measured after 24 hrs by Griess reagent based analysis; format: functional, cell-based; conditions: dose 10-40 µM, time 26.0 hrs
RAW264.7 [2] = assay: Antiinflammatory activity against LPS-stimulated mouse RAW264.7 cells assessed as downregulation of LPS-induced iNOS expression preincubated with compound for 2 hrs followed by LPS stimulation and measured after 24 hrs by Western blot analysis; format: functional, cell-based; conditions: dose 10-40 µM, time 26.0 hrs
RAW264.7 [3] = assay: Cytotoxicity against mouse RAW264.7 cells assessed as cell viability by MTT assay; format: functional, cell-based
RAW264.7 [4] = assay: Antiinflammatory activity against LPS-stimulated mouse RAW264.7 cells assessed as suppression of NO secretion at 20 uM preincubated with compound for 2 hrs followed by LPS stimulation and measured after 24 hrs by Griess reagent based assay relative to control; format: functional; conditions: time 26 hrs
NCI-H1975 = assay: Anticancer activity against human NCI-H1975 cells assessed as inhibition of cell growth incubated for 48 hrs by MTT assay; format: functional, cell-based; conditions: NCI-H1975, 48 h
A549 = assay: Anticancer activity against human A549 cells assessed as inhibition of cell growth incubated for 48 hrs by MTT assay; format: functional, cell-based; conditions: A549, 48 h
MDA-MB-231 = assay: Anticancer activity against human MDA-MB-231 cells assessed as inhibition of cell growth incubated for 48 hrs by MTT assay; format: functional, cell-based; conditions: MDA-MB-231, 48 h
MCF7 = assay: Anticancer activity against human MCF7 cells assessed as inhibition of cell growth incubated for 48 hrs by MTT assay; format: functional, cell-based; conditions: MCF7, 48 h

CC(C)c1cc2c(cc1O)[C@@]1(C)CCC[C@](C)(CO)[C@@H]1CC2
inhibition (RAW264.7 [1]): Dose-Dependent Effect

CC(C)c1cc2c(cc1O)CC[C@H]1[C@](C)(CO)CCC[C@]21C
Activity (RAW264.7 [2]): Dose-Dependent Effect | inhibition (RAW264.7 [1]): Dose-Dependent Effect | Activity (RAW264.7 [3]): inactive

CC(C)c1cc2c(cc1O)CC[C@H]1C(C)(C)[C@@H](O)CC[C@]21C
Activity (RAW264.7 [2]): Dose-Dependent Effect | Activity (RAW264.7 [4]): 91% | inhibition (RAW264.7 [1]): Dose-Dependent Effect | Activity (RAW264.7 [3]): inactive

C=C1[C@@H]2CC[C@H]3[C@]4(C)CCC[C@](C)(CO)[C@H]4C[C@H](O)[C@]3(C2)[C@@H]1O
Activity (RAW264.7 [3]): inactive

CC1(C)CC[C@]2(C(=O)O)CC[C@]3(C)C(=CC[C@@H]4[C@@]5(C)C[C@@H](O)[C@H](O)C(C)(C)[C@@H]5CC[C@]43C)[C@@H]2C1
Activity (RAW264.7 [3]): inactive

CC(C)[C@@]1(O)CCC2=C(C1)C(=O)C[C@H]1C(C)(C)CC[C@H](O)[C@]21C
inhibition (RAW264.7 [1]): Dose-Dependent Effect | Activity (RAW264.7 [3]): inactive

C=C1C(=O)[C@@]23CC[C@@H]4C(C)(C)C(=O)CC[C@@]4(C)[C@@H]2CC[C@@H]1C3
IC50 (NCI-H1975): > 10 µM | Activity (RAW264.7 [3]): inactive | IC50 (A549): > 10 µM | IC50 (MDA-MB-231): 8.4 µM | IC50 (MCF7): > 10 µM

C=C1CC[C@@H]2C(C)(C)[C@H](O)CC[C@@]2(C)C1CCC1=CCOC1=O (stereo partly specified)
Activity (RAW264.7 [3]): inactive

CC(C)c1cc2c(cc1O)[C@@]1(C)CC[C@H](O)[C@](C)(C=O)[C@@H]1CC2
Activity (RAW264.7 [4]): 95% | Activity (RAW264.7 [3]): inactive

CC(C)[C@H]1CC[C@H]2[C@@H](CC[C@H]3C(C)(C)CCC[C@]23C)C1
inhibition (RAW264.7 [1]): Active

CC(C)C(=O)OC1=C[C@@]2(CO)C(CC[C@]3(C)C2CC=C2C4[C@](C(=O)O)(CC[C@@H](C)[C@@]4(C)O)CC[C@]23C)C(C)(C)C1 (stereo partly specified)
Activity (RAW264.7 [3]): inactive

C=C1CC[C@@H]2[C@](C)(C(=O)O)CCC[C@@]2(C)C1CCC1=CCOC1=O (stereo partly specified)
Activity (RAW264.7 [3]): inactive

C=C1C(=O)O[C@H]2C3=CC[C@@H]4C(C)(C)C(=O)CC[C@@]4(C)[C@@H]3CC[C@@H]12
IC50 (NCI-H1975): > 10 µM | Activity (RAW264.7 [3]): inactive | IC50 (A549): > 10 µM | IC50 (MDA-MB-231): 7.3 µM | IC50 (MCF7): > 10 µM

CC(C)c1cc2c(cc1O)[C@@]1(C)CCCC(C)(C)[C@@H]1CC2=O
Activity (RAW264.7 [3]): inactive

CC(C)c1cc2c(cc1O)C(=O)C[C@H]1C(C)(C)CCC[C@]21C
Activity (RAW264.7 [2]): Dose-Dependent Effect | Activity (RAW264.7 [4]): 86% | inhibition (RAW264.7 [1]): Dose-Dependent Effect | Activity (RAW264.7 [3]): inactive

COc1cc(/C=C/C(=O)O[C@H]2[C@H](O)C[C@]3(C)C4CC=C5C6CC(C)(C)CC[C@]6(C(=O)O)CC[C@@]5(C)[C@]4(C)CC[C@H]3C2(C)C)ccc1O (stereo partly specified)
Activity (RAW264.7 [3]): inactive

CC1(C)CC[C@]2(C(=O)O)CC[C@]3(C)C(=CCC4[C@@]5(C)C[C@@H](O)[C@H](OC(=O)/C=C/c6ccc(O)cc6)C(C)(C)[C@@H]5CC[C@]43C)C2C1 (stereo partly specified)
Activity (RAW264.7 [3]): inactive

CC(=O)[C@@H](C)CC[C@@]1(C(=O)O)C=C2C=CC3[C@@]4(C)C(C(=O)O)=CC(C)(C)[C@@H]4CC[C@@]3(C)[C@]2(C)CC1 (stereo partly specified)
Activity (RAW264.7 [3]): inactive

C=C1[C@@H]2CC[C@H]3[C@]4(C)CC[C@@H](O)C(C)(C)[C@H]4C[C@H](OC(C)=O)[C@]3(C2)[C@@H]1O
Activity (RAW264.7 [3]): inactive

CC(C)c1c(O)ccc2c1CC[C@H]1C(C)(C)[C@@H](O)CC[C@]21C
Activity (RAW264.7 [3]): inactive

C[C@@H]1CC[C@]2(C(=O)O)CC[C@]3(C)C(=CCC4[C@@]5(C)C[C@@H](O)OCC(C)(C)C5CC[C@]43C)C2[C@]1(C)O (stereo partly specified)
Activity (RAW264.7 [3]): inactive

CC(C)c1c(O)ccc2c1CC[C@H]1C(C)(C)C(=O)CC[C@]21C
inhibition (RAW264.7 [1]): Dose-Dependent Effect | Activity (RAW264.7 [3]): inactive

CC1(C)CC[C@]2(C(=O)O)CC[C@]3(C)C(=C2C1)CCC1[C@@]2(C)C[C@@H](O)[C@H](O)C(C)(C)[C@@H]2CC[C@]13C (stereo partly specified)
Activity (RAW264.7 [3]): inactive

C[C@@H]1CC[C@]2(C(=O)O)CC[C@]3(C)C(=CCC4[C@@]5(C)C[C@@H](O)[C@H](OC(=O)/C=C/c6ccc(O)cc6)C(C)(C)[C@@H]5CC[C@]43C)C2[C@H]1C (stereo partly specified)
Activity (RAW264.7 [3]): inactive

CC1(C)CC[C@]2(C(=O)O)CC[C@]3(C)C(=CCC4[C@@]5(C)C[C@@H](O)[C@@H](O)C(C)(C)[C@@H]5CC[C@]43C)C2C1 (stereo partly specified)
Activity (RAW264.7 [3]): inactive

CC(C)c1c(O)ccc2c1CC[C@H]1[C@@](C)(C(=O)O)CCC[C@]21C
inhibition (RAW264.7 [1]): Dose-Dependent Effect | Activity (RAW264.7 [3]): inactive

C=C1C(=O)[C@]23C[C@H]1CC[C@H]2[C@]1(C)CC[C@@H](O)C(C)(C)[C@H]1C[C@@H]3OC(C)=O
IC50 (NCI-H1975): 6.3 µM | Activity (RAW264.7 [3]): inactive | IC50 (A549): 4.7 µM | IC50 (MDA-MB-231): 6.6 µM | IC50 (MCF7): 7.4 µM

CC1(C)CC[C@]2(C(=O)O)CC[C@]3(C)C(=C2C1)C=CC1[C@@]2(C)C[C@@H](O)[C@H](O)C(C)(C)[C@@H]2CC[C@]13C (stereo partly specified)
Activity (RAW264.7 [3]): inactive

CC(C)c1ccc2c(c1O)CC[C@@H]1[C@@](C)(CO)CCC[C@@]21C
Activity (RAW264.7 [2]): Dose-Dependent Effect | Activity (RAW264.7 [4]): 94% | inhibition (RAW264.7 [1]): Dose-Dependent Effect | Activity (RAW264.7 [3]): inactive

COc1cc2c(cc1C(C)C)CC[C@H]1[C@@](C)(C(=O)O)CCC[C@]21C
Activity (RAW264.7 [3]): inactive

CC(C)c1cc2c(cc1O)[C@@]1(C)CC[C@H](O)C(C)(C)[C@@H]1CC2
Activity (RAW264.7 [3]): inactive

CC(C)c1cc2c(cc1O)C(=O)C[C@H]1[C@@](C)(CO)CCC[C@]21C
inhibition (RAW264.7 [1]): Dose-Dependent Effect | Activity (RAW264.7 [3]): inactive

CC(=O)O[C@H]1C(=O)[C@@]2(C)[C@H]([C@H](OC(=O)c3ccccc3)[C@]3(O)C[C@H](OC(=O)[C@H](O)[C@@H](NC(=O)c4ccccc4)c4ccccc4)C(C)=C1C3(C)C)[C@]1(OC(C)=O)CO[C@@H]1C[C@@H]2O [PACLITAXEL]
IC50 (NCI-H1975): 0.028 µM | IC50 (A549): 0.018 µM | IC50 (MDA-MB-231): 0.03 µM

C=C1[C@@H]2CC[C@H]3[C@]4(C)CC[C@@H](O)C(C)(C)[C@H]4C[C@@H](O)[C@]3(C2)[C@@H]1O
Activity (RAW264.7 [3]): inactive

CC(C)c1cc2c(cc1O)[C@@]1(C)CCC[C@](C)(CO)[C@@H]1C=C2
Activity (RAW264.7 [3]): inactive

C=C1CC[C@@H]2[C@](C)(CO)CCC[C@@]2(C)C1CCC1=CCOC1=O (stereo partly specified)
Activity (RAW264.7 [3]): inactive

C[C@@H]1CC[C@]2(C(=O)O)CC[C@]3(C)C(=CC[C@@H]4[C@@]5(C)C(CO)=CC(C)(C)[C@@H]5CC[C@]43C)[C@@H]2[C@]1(C)O [HYPTASIENIC ACID]
IC50 (NCI-H1975): > 10 µM | Activity (RAW264.7 [3]): inactive | IC50 (A549): 7.4 µM | IC50 (MDA-MB-231): > 10 µM | IC50 (MCF7): > 10 µM
